Data published in patent publication US8211912B2, “Compositions and methods for effecting NAD+ levels using a nicotinamide phosphoribosyl tranferase inhibitor” (Gemin X Pharmaceuticals Canada, priority 2007, dated 2012).
Several values for one entry are separate records, joined by “and”; a condition that tells them apart may be missing. Equal values may be shown once. Read-outs that look alike come from different tables or passages of the source.

Key:
[1] = test system: DMS-114 human small cell lung carcinoma cells; test: Sensitization to DNA damaging chemotherapeutic agents, relative ATP viability, 3 days; assay type: cell-based; settings: for Fold change (IC50 in DMS-114 cells): without vs with 0.75 nM Compound 1
Protocol: (§3) Cells were plated in logarithmic growth phase at 500-20,000 cells per well in 96-well clear bottom plates (Corning; Corning, N.Y.) and cultured for 14 to 16 hours prior to the start of drug treatment. Serial dilutions of Compound 2 and Compound 1 were made in DMSO, diluted 1:50 in RPMI-1640 (Hyclone; Logan, Utah) and then added to tissue culture media at a final concentration of 0.2% DMSO. […] Relative ATP levels were determined by the bioluminescent measuring of cellular ATP levels in each culture well with the ViaLight-HS High Sensitivity Cytotoxicity and Cell Proliferation BioAssay Kit (Cambrex Bioproducts, Cat. No. LT07-311; Charles City, Iowa) according to manufacturer's instructions. Briefly, a cell permeabilizing reagent was added to each culture well in media at the time of viability determination, allowing free ATP to be released from viable cells in the culture. Addition of luciferase to the mixture catalyzes the release of light proportional to the amount of free ATP present, which can then be quantified in a Centro LB 960 luminometer (EG&G Berthold; Oak Ridge, Tenn.); the level of ATP is generally directly proportional to the viability of the cells.
(§4) Sigmoidal dose response curves were then generated using non-linear regression analysis of variable slope by Prism Version 4.00 for Windows (GraphPad Software, Inc.; San Diego, Calif.) and IC50 values calculated.
(§5) The IC50 values for the treatment with the DNA damaging agent were calculated relative to control cells that were treated with DMSO only.

[2] = test system: Jurkat human T cell leukemia cells; test: as above; settings: for Fold change (IC50 in Jurkat cells): without vs with 0.5 nM Compound 1
Protocol: as §3, §4, §5

[3] = Additional combination experiments with Compound 1; assay type: cell-based
[4] = Nicotinic acid as antidote to a lethal 24 h infusion of Compound 2 in non-tumor-bearing mice; settings: Compound 2 650 mg/kg 24 h infusion
Protocol: CB17 SCID female mice, 5 mice per group, who were not bearing tumors were administered a lethal dose of Compound 2 as a 24 h infusion of Compound 2 at 650 mg/kg. Thereafter, mice were infused with saline for 24 h (Group 1); a niacin solution (12 mg/mL) for 4 hours at a dose of 90 mg/m2/h (30 mg/kg/h) followed by saline for another 20 h at a flow rate of 50 μL/h (Group 2); or a niacin solution (12 mg/mL) for 24 hours at a dose of 90 mg/m^2/h (30 mg/kg/h) with a flow rate of 50 μL/h.

[5] = test system: human multiple myeloma IM-9 cancer cells; test: Xenograft of a cancer not deficient in nicotinic acid pathway; assay type: in vivo, CB17 SCID mice
Protocol: (§1) Human multiple myeloma IM-9 cancer cells were maintained in RPMI (Hyclone, Utah, USA) supplemented with 10% inactivated fetal bovine serum (Bio-Whittaker; MD, USA) and 1% penicillin-streptomycin-L-Glutamine (Gibco; NY, USA), under 5% CO2 at 37° C. IM-9 cells were transplanted subcutaneously into the flank of female mice. Each mouse was inoculated with a suspension of 10×10^6 tumors cells per 100 μl in PBS on day zero.
Treatments started on day eight after IM-9 cells transplantation. […] The control group was treated with vehicle (0.9% NaCl) alone for 104 hours. […] Compound 2 was prepared fresh for dosing and formulated in a vehicle solution of 10 mM citrate buffer at pH 4.8.
Observation continued for 23 days after initial tumor implantation.

[6] = test system: Human Fibrosarcoma HT1080 cancer cells; test: Xenograft of a cancer deficient in nicotinic acid pathway; assay type: in vivo, mice
Protocol: as §1, with “Fibrosarcoma HT1080” for “multiple myeloma IM-9”, “(Bio-Whittaker, Md.,” for “(Bio-Whittaker; MD,”, “HT1080” for “IM-9”, “1×10^6” for “10×10^6”
Treatments started on day fifteen after HT1080 cells transplantation. […] The control group was treated with vehicle (0.9% NaCl) alone for 104 hours. Treatments were conducted using Lomir External pump—Model 220 with a flow rate of 50 μL/hr (˜2.5 mL/kg/hr) and equipped with 1 cc syringes for treated groups or equipped with 10 cc syringes for the control group. Compound 2 was prepared fresh for dosing and formulated in a vehicle solution of 10 mM citrate buffer at pH 4.8.
Observation continued for 22 days after initial tumor implantation.

[7] = Nicotinic acid pre-treatment against lethal intramuscular Compound 2 in non-tumor-bearing mice
human NMPRT = human NMPRT (Homo sapiens, UniProt P43490); settings: cited from earlier work
HeLa cells = settings: Compound 1 20 nM, NM contained 0.1% NA
Protocol: (§2) Viability was measured after 72 hours by ViaLight assay (assessing ATP levels). […] Each bar is the mean±SD of quadruplicate samples. Each figure is representative of two independent experiments.
Viability was measured after 72 hours by ViaLight assay. […] Each point represents the mean and error bars the SD of triplicate samples. […] The concentration of nicotinamide in RPMI 1640 media was […]. HeLa cells were transiently transfected with vector (pcDNA3) or a plasmid expressing a flag-tagged yeast PNC1 gene (pcFLAG-PNC1). […] Relative viability was assessed after 72 hours by ViaLight assay.

[8] = test system: NF-κB regulated gene expression in HeLa cells; settings: Compound 1 100 nM, 10 mM nicotinic acid, 24 hrs then 4 hours TNFα
Protocol: as §2

[9] = test system: NAD^+ levels in HeLa cells; settings: Compound 1 100 nM, 10 mM nicotinic acid
Protocol: as §2

[10] = test system: Hs821.T giant cell sarcome; settings: 0.01, 0.1 and 1 mM nicotinic acid
U-2OS osteosarcome = settings: 0.01, 0.1 and 1 mM nicotinic acid
[11] = test system: SW982 synovial sarcoma cell line; settings: 0.01, 0.1 and 1 mM nicotinic acid
Text: In FIGS. 10 and 11, fraction of cell survived is indicated by the vertical axis (labeled as “% control”).

SW1353 chondrosarcoma = settings: 0.01, 0.1 and 1 mM nicotinic acid
HT1080 fibrosarcoma = settings: 0.01, 0.1 and 1 mM nicotinic acid
T98G (glioblastoma) = settings: 0.01, 0.1 and 1 mM nicotinic acid
A204 rhabdomyosarcoma = settings: 0.01, 0.1 and 1 mM nicotinic acid
[12] = test system: colon cancer cell line Colo320DM; settings: the only one of fourteen other carcinomas
IMR32 (neuroblastoma) = settings: 0.01, 0.1 and 1 mM nicotinic acid
MG-63 osteosarcoma = settings: 0.01, 0.1 and 1 mM nicotinic acid
GCT MFH histiocytoma = settings: 0.01, 0.1 and 1 mM nicotinic acid
[13] = read-out: IC50 in DMS-114 cells (μM), DNA damaging chemotherapeutic agent + 0.75 nM Compound 1, with 0.75 nM Compound 1, 3 days, relative to Compound 1 only control
[14] = read-out: IC50 in Jurkat cells (μM), DNA damaging chemotherapeutic agent + 0.5 nM Compound 1, with 0.5 nM Compound 1, 3 days, relative to Compound 1 only control
[15] = Homo sapiens, DMS-114, 72 h, read-out: IC50 in DMS-114 cells (μM), DNA damaging chemotherapeutic agent + No Compound 1, agent alone, 3 days, relative to DMSO control
[16] = Homo sapiens, Jurkat, 72 h, read-out: IC50 in Jurkat cells (μM), DNA damaging chemotherapeutic agent + No Compound 1

Chain of human NMPRT (P43490 whole entry): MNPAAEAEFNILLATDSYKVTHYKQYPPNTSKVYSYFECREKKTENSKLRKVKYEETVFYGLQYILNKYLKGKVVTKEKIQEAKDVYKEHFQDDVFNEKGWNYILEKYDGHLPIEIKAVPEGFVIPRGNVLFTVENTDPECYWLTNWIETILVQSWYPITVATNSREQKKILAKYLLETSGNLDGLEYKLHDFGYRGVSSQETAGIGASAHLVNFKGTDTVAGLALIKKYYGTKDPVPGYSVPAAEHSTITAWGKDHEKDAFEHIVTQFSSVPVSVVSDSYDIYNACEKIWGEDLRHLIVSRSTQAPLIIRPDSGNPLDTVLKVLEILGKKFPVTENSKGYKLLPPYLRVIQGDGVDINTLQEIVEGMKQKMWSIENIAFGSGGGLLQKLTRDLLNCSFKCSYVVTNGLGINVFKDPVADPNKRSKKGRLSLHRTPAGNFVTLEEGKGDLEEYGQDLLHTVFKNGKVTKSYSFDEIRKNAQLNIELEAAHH

CN(N=O)C(=O)N[C@H]1C(O)O[C@H](CO)[C@@H](O)[C@@H]1O (mixture of isomers) [Streptozotocin]
IC50 [1, 13]: 391 ± 152 µM | IC50 ([1]; read-out: IC50 in DMS-114 cells (μM), DNA damaging chemotherapeutic agent + No Compound 1, agent alone, 3 days, relative to DMSO control): 3960 ± 2270 µM | IC50 [2, 14]: 360 ± 304 µM | IC50 ([2]; read-out: IC50 in Jurkat cells (μM), DNA damaging chemotherapeutic agent + No Compound 1, agent alone, 3 days, relative to DMSO control): 1014 ± 10 µM

Sc1ncnc2nc[nH]c12 [6-Mercaptopurine]
Combination effect in the presence of Compound 1 [3]: less than additive effect

O=NN(CCCl)C(=O)NCCCl [Carmustine]
IC50 [1, 15]: 33.3 ± 7.3 µM | IC50 [1, 13]: 11.5 ± 3.6 µM | Fold change (IC50 in DMS-114 cells) [1]: 6.12 ± 7.5 | IC50 [2, 16]: 2.97 ± 1.1 µM | IC50 [2, 14]: 3.13 ± 0.49 µM | Fold change (IC50 in Jurkat cells) [2]: 0.93 ± 0.21

COCCOCCOCCOCCOC(=O)OC[n+]1ccc(NC(=NC#N)NCCCCCCOc2ccc(Cl)cc2)cc1.[Cl-] [Compound 2, 1-[2-(2-(2-(2-Methoxyethoxy)-ethoxy)-ethoxy)-ethoxy-carbonyloxymethyl]-4-[N′-cyano-N″-(6-(4-chlorophenoxy)-hexyl)-N-guanidino]-pyridinium chloride]
Mortality by day 5 ([4]; then nicotinic acid 90 mg/m^2/h for 4 h (Group 2)): 0/4 | Mortality by day 5 ([4]; then nicotinic acid 90 mg/m^2/h for 24 h (Group 3)): 0/5 | Mortality by day 5 ([4]; then saline, no nicotinic acid (Group 1), 650 mg/kg): 3 of the 5 and 3/5 | Tumor growth compared to vehicle ([5]; Compound 2 150 mg/kg IV 24 hours infusion from day eight, observation 23 days): statistically significant reduction in tumor growth | Tumor growth compared to vehicle ([6]; Compound 2 150 mg/kg IV 24 hours infusion from day fifteen, observation 22 days): statistically significant reduction in tumor growth | Tumor growth compared to vehicle ([6]; Compound 2 650 mg/kg IV 24 hours infusion): significant reduction in tumor growth | Mortality in treatment group ([6]; Compound 2 650 mg/kg IV 24 hours infusion, tumor-bearing mice): mortality of a mouse in this treatment group | Mortality by day 11 ([7]; Compound 2 250 mg/kg intramuscular QD × 5, no nicotinic acid, 250 mg/kg): 3 of the 5 and 3/5 | Mortality by day 11 ([7]; Compound 2 250 mg/kg intramuscular QD × 5, nicotinic acid pre-treatment 200 mg/kg IV QD × 5): 0/5 | Mortality by day 11 ([7]; Compound 2 250 mg/kg intramuscular QD × 5, nicotinic acid pre-treatment 200 mg/kg PO QD × 5): 0/5 | Mortality by day 11 ([7]; Compound 2 250 mg/kg intramuscular QD × 5, nicotinic acid pre-treatment 200 mg/kg SC QD × 5): 0/5

O=P1(N(CCCl)CCCl)NCCCO1 (stereo not shown) [Cyclophosphamide]
Combination effect in the presence of Compound 1 [3]: less than additive effect

O=C(/C=C/c1cccnc1)NCCCCC1CCN(C(=O)c2ccccc2)CC1 [FK866, (E)-N-[4-(1-benzoylpiperidin-4-yl)butyl]-3-(pyridin-3-yl)acrylamide]
Inhibition of human NMPRT (human NMPRT): potent

CC(=O)O[C@H]1C(=O)[C@@]2(C)[C@H]([C@H](OC(=O)c3ccccc3)[C@]3(O)C[C@H](OC(=O)[C@H](O)[C@@H](NC(=O)c4ccccc4)c4ccccc4)C(C)=C1C3(C)C)[C@]1(OC(C)=O)CO[C@@H]1C[C@@H]2O [Paclitaxel]
Combination effect in the presence of Compound 1 [3]: less than additive effect

CNNCc1ccc(C(=O)NC(C)C)cc1 [Procarbazine]
Combination effect in the presence of Compound 1 [3]: less than additive effect

NC(=O)c1ncn([C@@H]2O[C@H](CO)[C@@H](O)[C@H]2O)n1 [Ribavirin]
IC50 [1, 15]: 172 µM | IC50 [1, 13]: 173 µM | Fold change (IC50 in DMS-114 cells) [1]: 0.99 | IC50 [2, 16]: 63.3 ± 10 µM | IC50 [2, 14]: 15.5 ± 3.1 µM | Fold change (IC50 in Jurkat cells) [2]: 4.09 ± 0.16

Cn1nnc2c(C(N)=O)ncn2c1=O [Temozolomide]
IC50 [1, 15]: 339 ± 190 µM | IC50 [1, 13]: 50.1 ± 7.83 µM | Fold change (IC50 in DMS-114 cells) [1]: 2.53 ± .11 | IC50 [2, 16]: 212 ± 135 µM | IC50 [2, 14]: 158 ± 125 µM | Fold change (IC50 in Jurkat cells) [2]: 1.46 ± 0.26

NC(=O)c1cccnc1 [nicotinamide]
Concentrations rescuing viability relative to those required for NA rescue (HeLa cells): 1,000 ×

O=C(O)c1cccnc1 [nicotinic acid]
Rescue from NF-κB inhibition [8]: can rescue | Rescue from decline in NAD^+ levels [9]: can rescue | Rescue from Compound 1 induced cytotoxicity by nicotinic acid [10]: not rescued | Rescue from Compound 1 induced cytotoxicity by nicotinic acid (U-2OS osteosarcome): not rescued | Rescue from Compound 1 induced cytotoxicity by nicotinic acid [11]: rescue | Rescue from Compound 1 induced cytotoxicity by nicotinic acid (SW1353 chondrosarcoma): not rescued | Rescue from Compound 1 induced cytotoxicity by nicotinic acid (HT1080 fibrosarcoma): not rescued | Effect of nicotinic acid on the anti-tumor activity of Compound 2 ([5]; nicotinic acid 120 mg/kg 4 hours infusion after Compound 2 150 mg/kg): able to inhibit the anti-tumor activity of Compound 2 | Rescue from Compound 1 induced cytotoxicity by nicotinic acid (T98G (glioblastoma)): not rescued | Effect of niacin on the anti-tumor activity of Compound 2 ([6]; niacin 120 mg/kg 4 hours after Compound 2 150 mg/kg): unable to inhibit the anti-tumor activity of Compound 2 | Effect of niacin on the anti-tumor activity of Compound 2 ([6]; niacin 120 mg/kg 4 hours after Compound 2 650 mg/kg): did not inhibit the anti-tumor activity of Compound 2 | Rescue from Compound 1 induced cytotoxicity by nicotinic acid (A204 rhabdomyosarcoma): not rescued | Rescue from Compound 1 induced cytotoxicity by nicotinic acid [12]: not rescued | Percentage of sarcomas not being rescued (cancer cell lines; 13 sarcoma cell lines, Compound 1 with nicotinic acid): 60% | Neuroblastoma and glioblastoma cell lines not rescued by nicotinic acid (cancer cell lines; Compound 1 induced cytotoxicity): Two out of three | Number of sarcoma cell lines not rescued by nicotinic acid (cancer cell lines; out of 13 sarcoma cell lines tested, Compound 1 with 0.01, 0.1 and 1 mM nicotinic acid): 8 | Rescue from Compound 1 induced cytotoxicity by nicotinic acid (IMR32 (neuroblastoma)): not rescued | Rescue from Compound 1 induced cytotoxicity by nicotinic acid (MG-63 osteosarcoma): not rescued | Rescue from Compound 1 induced cytotoxicity by nicotinic acid (GCT MFH histiocytoma): not rescued
